{"source": "ChEMBL document CHEMBL5346910", "about": "“N-sulfonyl peptide-hybrids as a new class of dengue virus protease inhibitors” (Eur J Med Chem, 2023)", "key": {"[1]": {"target": "Genome polyprotein (dengue virus type 2) (UniProt P29990)", "assay": "Inhibition of DENV-2 NS2B-NS3 protease at 50 uM by biochemical enzymatic assay relative to control"}, "[2]": {"target": "Genome polyprotein (West Nile virus) (UniProt P06935)", "sequence (P06935 whole entry)": "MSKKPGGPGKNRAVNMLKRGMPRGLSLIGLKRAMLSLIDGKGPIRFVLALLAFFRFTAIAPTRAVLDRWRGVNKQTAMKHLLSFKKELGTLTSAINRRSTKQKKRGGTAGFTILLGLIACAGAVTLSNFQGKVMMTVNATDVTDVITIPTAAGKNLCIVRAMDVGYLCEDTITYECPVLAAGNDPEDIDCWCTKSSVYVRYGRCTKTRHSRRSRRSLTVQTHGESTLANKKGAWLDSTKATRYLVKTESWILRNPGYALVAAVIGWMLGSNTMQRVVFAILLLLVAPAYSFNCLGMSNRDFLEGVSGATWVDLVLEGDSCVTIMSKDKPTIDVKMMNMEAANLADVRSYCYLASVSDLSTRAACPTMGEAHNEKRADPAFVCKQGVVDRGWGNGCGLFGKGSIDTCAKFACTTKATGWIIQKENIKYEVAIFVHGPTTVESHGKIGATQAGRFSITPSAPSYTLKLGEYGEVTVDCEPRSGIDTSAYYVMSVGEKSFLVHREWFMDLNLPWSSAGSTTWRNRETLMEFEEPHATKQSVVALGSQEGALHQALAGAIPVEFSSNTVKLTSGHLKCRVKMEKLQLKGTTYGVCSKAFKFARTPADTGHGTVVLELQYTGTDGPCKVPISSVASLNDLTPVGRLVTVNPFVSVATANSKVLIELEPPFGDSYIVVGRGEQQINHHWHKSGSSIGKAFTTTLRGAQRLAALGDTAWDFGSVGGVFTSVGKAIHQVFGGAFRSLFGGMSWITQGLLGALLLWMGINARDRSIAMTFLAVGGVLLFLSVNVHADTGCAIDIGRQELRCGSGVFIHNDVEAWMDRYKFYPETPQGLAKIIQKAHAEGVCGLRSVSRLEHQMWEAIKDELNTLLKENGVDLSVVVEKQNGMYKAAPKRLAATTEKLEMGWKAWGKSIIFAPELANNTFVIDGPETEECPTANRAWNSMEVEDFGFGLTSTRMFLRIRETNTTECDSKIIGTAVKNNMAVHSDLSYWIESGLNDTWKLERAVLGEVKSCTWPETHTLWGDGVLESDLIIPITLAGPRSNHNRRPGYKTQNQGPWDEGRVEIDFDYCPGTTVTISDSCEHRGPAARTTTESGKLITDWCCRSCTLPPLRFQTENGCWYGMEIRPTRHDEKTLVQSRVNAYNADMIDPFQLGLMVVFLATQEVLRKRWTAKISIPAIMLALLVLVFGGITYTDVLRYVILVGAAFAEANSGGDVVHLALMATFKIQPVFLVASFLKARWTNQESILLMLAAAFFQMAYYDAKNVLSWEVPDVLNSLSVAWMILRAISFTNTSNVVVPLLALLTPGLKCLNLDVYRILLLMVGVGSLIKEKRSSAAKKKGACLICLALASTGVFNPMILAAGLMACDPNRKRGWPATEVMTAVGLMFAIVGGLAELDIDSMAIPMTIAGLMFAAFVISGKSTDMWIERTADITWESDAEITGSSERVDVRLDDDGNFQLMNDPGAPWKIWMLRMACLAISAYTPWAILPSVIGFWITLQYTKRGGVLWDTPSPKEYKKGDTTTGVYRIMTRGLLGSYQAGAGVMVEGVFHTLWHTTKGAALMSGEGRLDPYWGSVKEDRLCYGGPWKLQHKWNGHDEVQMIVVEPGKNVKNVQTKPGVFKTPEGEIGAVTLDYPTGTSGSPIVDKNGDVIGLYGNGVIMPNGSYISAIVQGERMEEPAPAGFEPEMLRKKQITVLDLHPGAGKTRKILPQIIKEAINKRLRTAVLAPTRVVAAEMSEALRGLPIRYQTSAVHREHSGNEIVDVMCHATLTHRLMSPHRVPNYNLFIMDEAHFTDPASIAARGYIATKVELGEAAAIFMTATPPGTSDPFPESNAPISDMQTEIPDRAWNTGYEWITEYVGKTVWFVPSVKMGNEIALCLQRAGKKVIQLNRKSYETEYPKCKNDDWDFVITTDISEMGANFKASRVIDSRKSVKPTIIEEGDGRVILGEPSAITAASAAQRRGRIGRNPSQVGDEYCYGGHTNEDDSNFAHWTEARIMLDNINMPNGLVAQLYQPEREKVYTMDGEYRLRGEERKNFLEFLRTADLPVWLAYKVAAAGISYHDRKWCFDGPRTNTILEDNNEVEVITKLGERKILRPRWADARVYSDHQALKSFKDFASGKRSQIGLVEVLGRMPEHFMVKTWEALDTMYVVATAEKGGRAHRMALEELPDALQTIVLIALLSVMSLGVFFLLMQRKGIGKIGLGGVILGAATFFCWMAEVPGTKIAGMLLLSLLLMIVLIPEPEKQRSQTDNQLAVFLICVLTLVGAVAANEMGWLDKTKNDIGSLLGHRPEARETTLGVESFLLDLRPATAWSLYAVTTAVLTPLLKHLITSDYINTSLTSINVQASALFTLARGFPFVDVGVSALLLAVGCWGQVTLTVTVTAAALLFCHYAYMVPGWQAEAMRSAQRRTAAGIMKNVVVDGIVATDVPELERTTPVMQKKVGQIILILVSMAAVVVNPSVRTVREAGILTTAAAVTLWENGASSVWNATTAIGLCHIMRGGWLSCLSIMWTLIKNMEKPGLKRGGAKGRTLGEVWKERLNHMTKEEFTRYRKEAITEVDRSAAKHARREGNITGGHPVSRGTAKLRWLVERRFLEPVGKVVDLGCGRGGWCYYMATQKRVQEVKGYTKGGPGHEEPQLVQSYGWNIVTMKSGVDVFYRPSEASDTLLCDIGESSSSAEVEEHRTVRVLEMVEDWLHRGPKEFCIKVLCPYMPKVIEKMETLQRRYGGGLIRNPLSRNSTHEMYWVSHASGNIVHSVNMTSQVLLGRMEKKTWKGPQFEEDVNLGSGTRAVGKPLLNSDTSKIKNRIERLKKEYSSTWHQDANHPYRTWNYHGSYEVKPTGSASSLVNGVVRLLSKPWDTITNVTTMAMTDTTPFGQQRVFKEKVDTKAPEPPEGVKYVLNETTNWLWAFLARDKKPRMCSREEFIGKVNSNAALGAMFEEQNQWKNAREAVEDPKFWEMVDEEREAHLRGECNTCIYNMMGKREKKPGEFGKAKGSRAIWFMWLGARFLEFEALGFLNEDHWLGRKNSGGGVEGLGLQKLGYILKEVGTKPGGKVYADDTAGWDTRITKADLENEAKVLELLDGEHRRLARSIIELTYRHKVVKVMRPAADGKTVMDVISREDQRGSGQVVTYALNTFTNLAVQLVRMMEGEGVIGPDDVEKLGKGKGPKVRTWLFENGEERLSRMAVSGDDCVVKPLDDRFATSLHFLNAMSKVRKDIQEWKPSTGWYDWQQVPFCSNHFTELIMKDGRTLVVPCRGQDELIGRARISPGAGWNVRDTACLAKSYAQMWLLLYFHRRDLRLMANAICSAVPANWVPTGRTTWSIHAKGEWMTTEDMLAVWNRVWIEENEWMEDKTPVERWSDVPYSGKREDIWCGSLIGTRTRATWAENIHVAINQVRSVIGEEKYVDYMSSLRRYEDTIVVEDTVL", "assay": "Inhibition of West Nile virus NS2B-NS3 protease at 50 uM by biochemical enzymatic assay relative to control"}, "[3]": {"target": "Prothrombin (Homo sapiens) (UniProt P00734)", "assay": "Inhibition of Thrombin (unknown origin) at 25 uM by biochemical assay relative to control"}, "Trypsin [4]": {"target": "T1, Trypsin (Homo sapiens, UniProt P07477+P07478+P35030)", "assay": "Inhibition of trypsin (unknown origin) at 50 uM by biochemical assay relative to control", "assay_type": "protein assay"}, "[5]": {"assay": "Cytotoxicity against human HeLa cells by CellTiter-Blue assay", "assay_type": "toxicity, cell-based"}, "Genome polyprotein [6]": {"target": "Genome polyprotein (dengue virus type 2, UniProt P29990)", "assay": "Inhibition of DENV-2 NS2B-NS3 protease by biochemical enzymatic assay"}, "Genome polyprotein [7]": {"target": "Genome polyprotein (West Nile virus, UniProt P06935)", "sequence (P06935 1371-1501 limits assumed)": "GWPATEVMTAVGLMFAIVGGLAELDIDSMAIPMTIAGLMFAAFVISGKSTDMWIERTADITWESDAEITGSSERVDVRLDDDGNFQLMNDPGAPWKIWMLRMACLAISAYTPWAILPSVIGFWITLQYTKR", "sequence (P06935 1502-2120 limits assumed)": "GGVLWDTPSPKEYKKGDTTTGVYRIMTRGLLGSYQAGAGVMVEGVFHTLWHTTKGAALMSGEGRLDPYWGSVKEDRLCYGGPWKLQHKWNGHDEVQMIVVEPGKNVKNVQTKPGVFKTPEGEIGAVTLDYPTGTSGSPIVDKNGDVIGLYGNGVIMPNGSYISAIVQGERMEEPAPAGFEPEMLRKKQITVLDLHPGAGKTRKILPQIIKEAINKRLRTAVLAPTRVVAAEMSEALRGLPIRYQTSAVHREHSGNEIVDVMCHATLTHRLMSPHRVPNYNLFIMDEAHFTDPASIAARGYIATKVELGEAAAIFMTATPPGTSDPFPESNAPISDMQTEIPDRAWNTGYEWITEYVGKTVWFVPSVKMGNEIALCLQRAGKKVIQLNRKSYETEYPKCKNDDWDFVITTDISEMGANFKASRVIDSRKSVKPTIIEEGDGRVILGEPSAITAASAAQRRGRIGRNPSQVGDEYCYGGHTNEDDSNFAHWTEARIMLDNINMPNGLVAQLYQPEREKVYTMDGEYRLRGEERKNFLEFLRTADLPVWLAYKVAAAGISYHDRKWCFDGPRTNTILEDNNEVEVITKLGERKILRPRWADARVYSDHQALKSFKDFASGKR", "assay": "Inhibition of West Nile virus NS2B-NS3 protease by biochemical enzymatic assay"}, "[8]": {"assay": "Metabolic stability in rat liver microsomes assessed as parent compound remaining measured for 120 mins by UV-based HPLC analysis", "assay_type": "ADME, Microsome", "conditions": "read-out: Stability"}, "Trypsin [9]": {"target": "T1, Trypsin", "assay": "Stability of the compound assessed as trypsin (unknown origin) mediated compound degradation incubated for 60 mins by UV-based HPLC analysis", "assay_type": "ADME, protein assay", "conditions": "1 h"}, "[10]": {"assay": "Stability of the compound assessed as alpha-chymotrypsin (unknown origin) mediated compound degradation incubated for 60 mins by UV-based HPLC analysis", "assay_type": "ADME", "conditions": "human, 1 h"}}}
{"smiles": "Cc1ccc(S(=O)(=O)N[C@@H](CCCNC(=N)N)C(=O)N[C@@H](CCCCN)C(=O)N[C@@H](C(N)=O)c2ccccc2)cc1", "values": [{"measurement": "inhibition", "setting": "[1]", "value": 50.5, "unit": "%"}, {"measurement": "inhibition", "setting": "[2]", "value": 17.7, "unit": "%"}, {"measurement": "inhibition", "setting": "[3]", "value": "< 10", "unit": "%"}, {"measurement": "inhibition", "setting": "Trypsin [4]", "value": 21.6, "unit": "%"}, {"measurement": "CC50", "setting": "[5]", "value": "> 50", "unit": "µM"}]}
{"smiles": "Cc1ccc(S(=O)(=O)N(C)[C@@H](Cc2ccc(NC(=N)N)cc2)C(=O)N[C@@H](CCCCN)C(=O)N[C@@H](C(N)=O)c2ccccc2)cc1", "values": [{"measurement": "inhibition", "setting": "[1]", "value": 95, "unit": "%"}, {"measurement": "IC50", "setting": "Genome polyprotein [6]", "value": 1.63, "unit": "µM"}, {"measurement": "inhibition", "setting": "[2]", "value": "< 10", "unit": "%"}, {"measurement": "inhibition", "setting": "[3]", "value": "< 10", "unit": "%"}, {"measurement": "inhibition", "setting": "Trypsin [4]", "value": 19.9, "unit": "%"}, {"measurement": "CC50", "setting": "[5]", "value": "> 50", "unit": "µM"}]}
{"smiles": "CN([C@@H](Cc1ccc(C(=N)N)cc1)C(=O)N[C@@H](CCCCN)C(=O)N[C@@H](C(N)=O)c1ccc(OCc2ccc(C(F)(F)F)cc2)cc1)S(=O)(=O)c1ccccc1", "values": [{"measurement": "inhibition", "setting": "[1]", "value": 99.2, "unit": "%"}, {"measurement": "IC50", "setting": "Genome polyprotein [6]", "value": 0.12, "unit": "µM"}, {"measurement": "inhibition", "setting": "[2]", "value": 80.4, "unit": "%"}, {"measurement": "IC50", "setting": "Genome polyprotein [7]", "value": 13.9, "unit": "µM"}, {"measurement": "inhibition", "setting": "[3]", "value": 15.8, "unit": "%"}, {"measurement": "inhibition", "setting": "Trypsin [4]", "value": 18.3, "unit": "%"}, {"measurement": "CC50", "setting": "[5]", "value": 75.3, "unit": "µM"}]}
{"smiles": "CN([C@@H](Cc1ccc(C(=N)N)cc1)C(=O)N[C@@H](CCCCN)C(=O)N[C@@H](C(N)=O)c1ccccc1)S(=O)(=O)c1ccccc1", "values": [{"measurement": "inhibition", "setting": "[1]", "value": 98.9, "unit": "%"}, {"measurement": "IC50", "setting": "Genome polyprotein [6]", "value": 0.21, "unit": "µM"}, {"measurement": "inhibition", "setting": "[2]", "value": 48.7, "unit": "%"}, {"measurement": "inhibition", "setting": "[3]", "value": 19.6, "unit": "%"}, {"measurement": "inhibition", "setting": "Trypsin [4]", "value": 19.2, "unit": "%"}, {"measurement": "CC50", "setting": "[5]", "value": "> 200", "unit": "µM"}, {"measurement": "remaining at 2 h", "setting": "[8]", "value": 100, "unit": "%"}, {"measurement": "Stability", "setting": "Trypsin [9]", "value": "Stable"}, {"measurement": "Stability", "setting": "[10]", "value": "Stable"}]}
{"smiles": "Cc1cc(C)c(S(=O)(=O)N[C@@H](CCCNC(=N)N)C(=O)N[C@@H](CCCCN)C(=O)N[C@@H](C(N)=O)c2ccccc2)c(C)c1", "values": [{"measurement": "inhibition", "setting": "[1]", "value": 35.9, "unit": "%"}, {"measurement": "inhibition", "setting": "[2]", "value": "< 10", "unit": "%"}, {"measurement": "inhibition", "setting": "[3]", "value": "< 10", "unit": "%"}, {"measurement": "inhibition", "setting": "Trypsin [4]", "value": "< 10", "unit": "%"}, {"measurement": "CC50", "setting": "[5]", "value": "> 50", "unit": "µM"}]}
{"smiles": "CC(C)c1cc(C(C)C)c(S(=O)(=O)N[C@@H](CCCNC(=N)N)C(=O)N[C@@H](CCCCN)C(=O)N[C@@H](C(N)=O)c2ccccc2)c(C(C)C)c1", "values": [{"measurement": "inhibition", "setting": "[1]", "value": 20.2, "unit": "%"}, {"measurement": "inhibition", "setting": "[2]", "value": "< 10", "unit": "%"}, {"measurement": "inhibition", "setting": "[3]", "value": "< 10", "unit": "%"}, {"measurement": "inhibition", "setting": "Trypsin [4]", "value": "< 10", "unit": "%"}, {"measurement": "CC50", "setting": "[5]", "value": "> 50", "unit": "µM"}]}
{"smiles": "CN([C@@H](Cc1cccc(NC(=N)N)c1)C(=O)N[C@@H](CCCCN)C(=O)N[C@@H](C(N)=O)c1ccccc1)S(=O)(=O)c1ccccc1", "values": [{"measurement": "inhibition", "setting": "[1]", "value": 78.6, "unit": "%"}, {"measurement": "IC50", "setting": "Genome polyprotein [6]", "value": 13.2, "unit": "µM"}, {"measurement": "inhibition", "setting": "[2]", "value": 10.1, "unit": "%"}, {"measurement": "inhibition", "setting": "[3]", "value": 30.2, "unit": "%"}, {"measurement": "inhibition", "setting": "Trypsin [4]", "value": "< 10", "unit": "%"}]}
{"smiles": "CN([C@@H](CCCNC(=N)N)C(=O)N[C@@H](CCCCN)C(=O)N[C@@H](C(N)=O)c1ccccc1)S(=O)(=O)c1ccc(Cl)cc1", "values": [{"measurement": "inhibition", "setting": "[1]", "value": 75.1, "unit": "%"}, {"measurement": "IC50", "setting": "Genome polyprotein [6]", "value": 19.4, "unit": "µM"}, {"measurement": "inhibition", "setting": "[2]", "value": "< 10", "unit": "%"}, {"measurement": "inhibition", "setting": "[3]", "value": "< 10", "unit": "%"}, {"measurement": "inhibition", "setting": "Trypsin [4]", "value": 13, "unit": "%"}]}
{"smiles": "CC[C@H](NC(=O)[C@H](Cc1cccc(NC(=N)N)c1)N(C)S(=O)(=O)c1ccc(C)cc1)C(=O)N[C@@H](C(N)=O)c1ccccc1", "values": [{"measurement": "inhibition", "setting": "[1]", "value": 74.3, "unit": "%"}, {"measurement": "IC50", "setting": "Genome polyprotein [6]", "value": 18.9, "unit": "µM"}, {"measurement": "inhibition", "setting": "[2]", "value": "< 10", "unit": "%"}, {"measurement": "inhibition", "setting": "[3]", "value": 18.1, "unit": "%"}, {"measurement": "inhibition", "setting": "Trypsin [4]", "value": "< 10", "unit": "%"}]}
{"smiles": "N=C(N)NCCC[C@H](NS(=O)(=O)C1CCCCC1)C(=O)N[C@@H](CCCCN)C(=O)N[C@@H](C(N)=O)c1ccccc1", "values": [{"measurement": "inhibition", "setting": "[1]", "value": 65.2, "unit": "%"}, {"measurement": "inhibition", "setting": "[2]", "value": "< 10", "unit": "%"}, {"measurement": "inhibition", "setting": "[3]", "value": "< 10", "unit": "%"}, {"measurement": "inhibition", "setting": "Trypsin [4]", "value": 17.4, "unit": "%"}, {"measurement": "CC50", "setting": "[5]", "value": "> 50", "unit": "µM"}]}
{"smiles": "CN(C)C(=O)COC(=O)Cc1ccc(OC(=O)c2ccc(NC(=N)N)cc2)cc1", "values": [{"measurement": "inhibition", "setting": "[3]", "value": 99, "unit": "%"}]}
{"smiles": "CN([C@@H](Cc1ccc(C(=N)N)cc1)C(=O)N[C@@H](CCCCN)C(=O)N[C@@H](C(N)=O)c1ccc(O)cc1)S(=O)(=O)c1ccccc1", "values": [{"measurement": "inhibition", "setting": "[1]", "value": 101, "unit": "%"}, {"measurement": "IC50", "setting": "Genome polyprotein [6]", "value": 0.44, "unit": "µM"}, {"measurement": "inhibition", "setting": "[2]", "value": 33.7, "unit": "%"}, {"measurement": "inhibition", "setting": "[3]", "value": 30.3, "unit": "%"}, {"measurement": "inhibition", "setting": "Trypsin [4]", "value": 14.7, "unit": "%"}]}
{"smiles": "CN(C)c1cccc2c(S(=O)(=O)N[C@@H](CCCNC(=N)N)C(=O)N[C@@H](CCCCN)C(=O)N[C@@H](C(N)=O)c3ccccc3)cccc12", "values": [{"measurement": "inhibition", "setting": "[1]", "value": 35.3, "unit": "%"}, {"measurement": "inhibition", "setting": "[2]", "value": "< 10", "unit": "%"}, {"measurement": "inhibition", "setting": "[3]", "value": 2.3, "unit": "%"}, {"measurement": "inhibition", "setting": "Trypsin [4]", "value": 10.7, "unit": "%"}, {"measurement": "CC50", "setting": "[5]", "value": "> 50", "unit": "µM"}]}
{"smiles": "CN([C@@H](Cc1ccc(C(=N)N)cc1)C(=O)N[C@@H](CCCCN)C(=O)N[C@H](C(N)=O)c1ccc(OCc2ccccc2)cc1)S(=O)(=O)c1ccccc1", "values": [{"measurement": "inhibition", "setting": "[1]", "value": 102, "unit": "%"}, {"measurement": "IC50", "setting": "Genome polyprotein [6]", "value": 0.2, "unit": "µM"}, {"measurement": "inhibition", "setting": "[2]", "value": 20.2, "unit": "%"}, {"measurement": "inhibition", "setting": "[3]", "value": 23.4, "unit": "%"}, {"measurement": "inhibition", "setting": "Trypsin [4]", "value": 34.3, "unit": "%"}]}
